Data set [1] concerns L1210 (ATCC CCL-219) mouse lymphocytic leukemia cells. The data set is described as follows: Cell growth inhibition assay. Conditions: for fold less active than duocarmycin SA (loss in activity): L1210, relative to duocarmycin SA. The format is cell-based.
The nature of another data set: PAMPA assay. The format is in vitro ADME. Conditions: for Papp at 5 h, 1 μM: pH 7.4.

Data on five compounds can be found in paper PMC3793852 (Journal of medicinal chemistry, 2013).

The term Papp denotes the rate of passage across a membrane or cell layer, normalised by area and donor concentration. For orientation: IC50 means the concentration needed to halve the response being measured.

As to `COCCOc1cc2cc(C(=O)N3C[C@@H](CCl)c4c3cc(O)c3[nH]c(C(=O)OC)cc43)[nH]c2c(OCCOC)c1OCCOC` [10a], the “fold less active than duocarmycin SA (loss in activity)” value in data set [1] was “approximately 5 fold”.

Turning to `COCCOCCOCCOCCOCCOc1cc2cc(C(=O)N3C[C@@H](CCl)c4c3cc(O)c3[nH]c(C(=O)OC)cc43)[nH]c2c(OCCOCCOCCOCCOCCOC)c1OCCOCCOCCOCCOCCOC` [10e], the Papp at 5 h, 1 μM in the data set “PAMPA assay” was determined as 0.11 ×10⁻⁶ cm/s. Also, the “fold reduction in permeability relative to 2” value in the data set “PAMPA assay” (relative to 2) came out at 85 fold. For the same compound, the half-maximal inhibitory concentration (IC50) in data set [1] (Mus musculus, L1210, read-out: –log IC50, cell growth inhibition (converted)) was 398 nM.

In “PAMPA assay”, `COCCOc1c(OC)cc2cc(C(=O)N3C[C@@H](CCl)c4c3cc(O)c3[nH]c(C(=O)OC)cc43)[nH]c2c1OC` [15a] returned an apparent permeability (Papp) at 5 h, 1 μM of 4 ×10⁻⁶ cm/s. In addition, in data set [1], the “fold less active than duocarmycin SA (loss in activity)” value is reported as “approximately 2 fold”. On the same counts, the results for `COCCOCCOCCOCCOCCOc1c(OC)cc2cc(C(=O)N3C[C@@H](CCl)c4c3cc(O)c3[nH]c(C(=O)OC)cc43)[nH]c2c1OC` [15e] are 2.1 ×10⁻⁶ cm/s and 30 fold. `COC(=O)c1cc2c([nH]1)C(=O)C=C1N(C(=O)c3cc4cc(OC)c(OC)c(OC)c4[nH]3)CC3CC123` (stereo not drawn) [compound 2, duocarmycin SA, reference compound] came in with a Papp at 5 h, 1 μM in the data set “PAMPA assay” of 9.5 ×10⁻⁶ cm/s.
